What was measured:
[1] = test system: PBMC TNF-α production; test: Inhibition of TNF-α production by LPS-stimulated human PBMC (1-day culture); format: cell-based; conditions: 24 h
Method: (§1) Metabolites and hydrolysis products of pomalidomide were tested for pharmacological activity in the following three assay systems: (1) inhibition of MM cell proliferation, (2) enhancement of primary human T cell IL-2 production and (3) inhibition of TNF-α production by lipopolysaccharide (LPS)-stimulated human peripheral blood mononuclear cells (PBMC). For all three assay types, compounds were dissolved in 100 % dimethyl sulfoxide (DMSO) and diluted into complete cell culture medium, consisting of Roswell Park Memorial Institute (RPMI)-1640 plus penicillin, streptomycin and L-glutamine (Mediatech, Manassas, VA). The MM cell proliferation cell culture medium contained 10 % fetal bovine serum, while the primary human cell cultures contained 10 % human AB serum (Invitrogen, Brown Deer, WI). The final DMSO concentration in the cell culture media was 0.25 %.
(§2) The human MM cell line OPM-2 was obtained from DSMZ (Braunschweig, Germany), and human MM cell lines U266 B1 and NCI-H929 were obtained from ATCC (Manassas, VA). Inhibition of MM cell proliferation was assessed by the [^3H]-thymidine incorporation assay in a 3-day culture in the presence of compounds in complete medium, as previously described. Primary human T cells were isolated from PBMC by negative selection using the RosetteSep T Cell Enrichment Cocktail (STEMCELL Technologies, Tukwila, WA) according to the manufacturer’s procedures. Costimulation of T cell IL-2 production was measured in a 2-day culture of primary human T cells isolated from healthy donors stimulated with anti-CD3 antibody in the presence of compounds, as previously described. Inhibition of TNF-α production by LPS-stimulated human PBMC was measured in a 1-day culture in the presence of compound, as previously described.

[2] = test system: T cell IL-2 production; test: Enhancement of primary human T cell IL-2 production (anti-CD3 stimulated, 2-day culture); format: cell-based; conditions: 48 h, anti-CD3 stimulated primary human T cells
Method: as §1, §2

[3] = target: T1, CYP2C19 (Homo sapiens, UniProt P33261); test: In vitro CYP phenotyping (M17 formation from [14C]pomalidomide); format: in vitro ADME
T1 construct: purchased Cypex Ltd (Scotland, UK)
Method: (§3) The CYP enzymes responsible for the formation of the hydroxy pomalidomide metabolites were investigated using 10 recombinant human CYP (rCYP) enzymes (CYP1A2, CYP2A6, CYP2B6, CYP2C8, CYP2C9, CYP2C19, CYP2D6, CYP2E1, CYP3A4 and CYP3A5) at 100 pmol/mL. Incubations were prepared using [^14C]pomalidomide (1 μM) in 0.1 M potassium phosphate buffer (pH 7.4) with 4 mM MgCl2, pre-incubated for 5 min at 37 °C. Reactions were initiated by the addition of 1 mM NADPH and continued for 30 or 60 min. Reactions were quenched with two volumes of ice-cold 0.1 % formic acid in acetonitrile containing [^13C5]pomalidomide as internal standard. The samples were mixed and centrifuged, and a subsample of the supernatant evaporated to dryness. The resulting pellet was reconstituted in 0.1 % formic acid in water and acetonitrile (4:1, v/v) and analyzed using HPLC with radiochromatography and/or LC–MS/MS. The rate of formation of the notable human metabolite M17 was calculated and scaled to human in vivo situation using relative abundance method.

[4] = target: T2, CYP3A4 (Homo sapiens, UniProt P08684); test: as above; format: in vitro ADME
T2 construct: purchased Cypex Ltd (Scotland, UK)
Method: as §3

[5] = target: T3, CYP1A2 (Homo sapiens, UniProt P05177); test: as above; format: in vitro ADME
T3 construct: purchased Cypex Ltd (Scotland, UK)
T3 sequence (P05177 1-516): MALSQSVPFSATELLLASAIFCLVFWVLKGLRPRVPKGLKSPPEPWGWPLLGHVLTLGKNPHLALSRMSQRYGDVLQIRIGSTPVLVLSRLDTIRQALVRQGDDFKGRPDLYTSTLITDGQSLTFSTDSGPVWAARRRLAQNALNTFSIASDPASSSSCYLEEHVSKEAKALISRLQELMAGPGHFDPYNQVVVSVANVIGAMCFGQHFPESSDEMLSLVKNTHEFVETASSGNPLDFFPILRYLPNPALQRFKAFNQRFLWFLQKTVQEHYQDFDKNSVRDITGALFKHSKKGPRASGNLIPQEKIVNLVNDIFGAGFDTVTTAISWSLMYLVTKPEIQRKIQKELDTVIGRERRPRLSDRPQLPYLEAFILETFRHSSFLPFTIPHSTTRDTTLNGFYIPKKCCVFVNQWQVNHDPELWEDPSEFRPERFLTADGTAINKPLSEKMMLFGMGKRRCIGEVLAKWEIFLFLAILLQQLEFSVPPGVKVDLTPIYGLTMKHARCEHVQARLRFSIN
Method: as §3

[6] = target: T4, CYP2D6 (Homo sapiens, UniProt P10635); test: as above; format: in vitro ADME
T4 construct: purchased Cypex Ltd (Scotland, UK)
Method: as §3

T2 sequence (P08684 whole entry): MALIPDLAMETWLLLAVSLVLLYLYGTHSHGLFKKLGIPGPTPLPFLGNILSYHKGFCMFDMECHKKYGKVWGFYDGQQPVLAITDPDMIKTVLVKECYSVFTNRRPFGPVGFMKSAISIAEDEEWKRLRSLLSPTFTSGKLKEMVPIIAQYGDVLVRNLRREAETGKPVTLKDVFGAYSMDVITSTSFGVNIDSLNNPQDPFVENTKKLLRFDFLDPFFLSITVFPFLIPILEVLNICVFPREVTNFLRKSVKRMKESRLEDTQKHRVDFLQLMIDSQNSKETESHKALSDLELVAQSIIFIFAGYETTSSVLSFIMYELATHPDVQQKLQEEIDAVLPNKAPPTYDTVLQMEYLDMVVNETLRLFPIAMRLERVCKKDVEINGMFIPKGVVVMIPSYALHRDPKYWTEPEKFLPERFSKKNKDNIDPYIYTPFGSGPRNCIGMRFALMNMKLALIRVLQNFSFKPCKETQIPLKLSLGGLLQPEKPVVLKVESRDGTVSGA
T1 sequence (P33261 whole entry): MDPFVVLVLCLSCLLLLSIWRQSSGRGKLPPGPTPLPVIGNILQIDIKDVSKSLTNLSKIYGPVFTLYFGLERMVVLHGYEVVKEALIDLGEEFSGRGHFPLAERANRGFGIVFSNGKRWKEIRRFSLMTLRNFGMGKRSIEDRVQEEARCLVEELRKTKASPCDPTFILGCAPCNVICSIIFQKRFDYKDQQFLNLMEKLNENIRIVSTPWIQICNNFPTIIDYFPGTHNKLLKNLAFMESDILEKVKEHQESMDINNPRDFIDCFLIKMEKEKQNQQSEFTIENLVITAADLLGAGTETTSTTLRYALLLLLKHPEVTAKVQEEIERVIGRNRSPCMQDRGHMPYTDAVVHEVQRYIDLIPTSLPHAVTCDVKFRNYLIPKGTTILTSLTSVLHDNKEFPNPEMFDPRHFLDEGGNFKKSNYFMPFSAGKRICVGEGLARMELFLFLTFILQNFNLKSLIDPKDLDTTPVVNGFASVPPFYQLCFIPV
T4 sequence (P10635 whole entry): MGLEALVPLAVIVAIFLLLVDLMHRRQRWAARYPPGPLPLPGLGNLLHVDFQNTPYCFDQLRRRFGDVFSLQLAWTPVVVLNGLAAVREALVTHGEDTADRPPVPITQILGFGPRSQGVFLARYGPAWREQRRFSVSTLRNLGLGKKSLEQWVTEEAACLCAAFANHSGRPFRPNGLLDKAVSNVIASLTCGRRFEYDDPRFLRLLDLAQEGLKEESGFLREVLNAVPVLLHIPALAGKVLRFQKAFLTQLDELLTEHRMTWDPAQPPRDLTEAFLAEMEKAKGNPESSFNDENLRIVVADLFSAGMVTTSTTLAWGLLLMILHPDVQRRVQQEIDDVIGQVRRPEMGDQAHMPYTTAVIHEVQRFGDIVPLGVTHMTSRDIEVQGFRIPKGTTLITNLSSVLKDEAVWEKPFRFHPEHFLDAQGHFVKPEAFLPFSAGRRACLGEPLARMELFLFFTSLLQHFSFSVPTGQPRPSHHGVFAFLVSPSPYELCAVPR

Nc1cccc2c1C(=O)N(C1CCC(=O)NC1=O)C2=O (racemic) [Pomalidomide, (RS)-4-amino-2-(2,6-dioxo-piperidin-3-yl)-isoindoline-1,3-dione]
IC50 [1]: 3.1 nM
EC50 [2]: 22 nM
relative contribution of isozyme to the hepatic metabolism of pomalidomide ([3]; CYP2C19, scaled by relative abundance in human liver): 11%
relative contribution of isozyme to the hepatic metabolism of pomalidomide ([4]; CYP3A4, scaled by relative abundance in human liver): 30%
relative contribution of isozyme to the hepatic metabolism of pomalidomide ([5]; CYP1A2, scaled by relative abundance in human liver): 54%
relative contribution of isozyme to the hepatic metabolism of pomalidomide ([6]; CYP2D6, scaled by relative abundance in human liver): 4%

Nc1c(O)ccc2c1C(=O)N(C1CCC(=O)NC1=O)C2=O (stereo not drawn) [Metabolite M17, 5-hydroxy pomalidomide]
IC50 [1]: > 10000 nM
EC50 [2]: > 10000 nM
rate of M17 formation ([3]; rCYP2C19, [14C]pomalidomide 1 μM, 1-h incubation, based on peak area ratios, estimated): 0.0024 pmol/min/pmol P450
rate of M17 formation ([4]; rCYP3A4, [14C]pomalidomide 1 μM, 1-h incubation, based on peak area ratios, estimated): 0.0008 pmol/min/pmol P450
rate of M17 formation ([5]; rCYP1A2, [14C]pomalidomide 1 μM, 1-h incubation, based on peak area ratios, estimated): 0.0027 pmol/min/pmol P450
rate of M17 formation ([6]; rCYP2D6, [14C]pomalidomide 1 μM, 1-h incubation, based on peak area ratios, estimated): 0.0011 pmol/min/pmol P450
